From patent US20240158446A1, “CYCLIC COMPOUND HAVING SELECTIVE INHIBITORY ACTION ON KRAS OVER HRAS AND NRAS” (CHUGAI SEIYAKU KABUSHIKI KAISHA, priority 2021, published 2024)
pKd: −log10 of the molar value.

How the values were obtained:
[1] = test system: human lung cancer strain NCI-H441; test: cells; conditions: NCI-H441, 96 h, read-out: NCI-H441 IC50 (nM), NCI-H441 cell proliferation, 4 days, CellTiter-Glo;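 also: cell proliferation inhibition after four days measured by CellTiter-Glo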
[2] = biological target: GDP-bound KRAS wild-type protein (Homo sapiens, UniProt P01116); test: Binding to KRAS by surface plasmon resonance (SPR), Single Cycle Kinetics; conditions: SPR, Single Cycle Kinetics, GDP-bound KRAS wild-type protein; read-out: KRAS KD
[3] = biological target: GDP-bound HRAS wild-type protein (Homo sapiens, UniProt P01112); test: Binding to HRAS by surface plasmon resonance (SPR), Single Cycle Kinetics; conditions: ratio of KD for GDP-bound HRAS wild-type protein to KD for KRAS, SPR
[4] = biological target: GDP-bound NRAS wild-type protein (Homo sapiens, UniProt P01111); test: Binding to NRAS by surface plasmon resonance (SPR), Single Cycle Kinetics; conditions: ratio of KD for GDP-bound NRAS wild-type protein to KD for KRAS, SPR
GDP-bound NRAS wild-type protein, sequence (P01111 whole entry): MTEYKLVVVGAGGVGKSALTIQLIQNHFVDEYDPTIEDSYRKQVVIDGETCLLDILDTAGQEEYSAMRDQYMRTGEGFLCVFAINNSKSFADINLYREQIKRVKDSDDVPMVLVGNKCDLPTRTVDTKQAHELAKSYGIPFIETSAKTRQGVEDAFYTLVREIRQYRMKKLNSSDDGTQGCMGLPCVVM

GDP-bound KRAS wild-type protein, sequence (P01116 whole entry): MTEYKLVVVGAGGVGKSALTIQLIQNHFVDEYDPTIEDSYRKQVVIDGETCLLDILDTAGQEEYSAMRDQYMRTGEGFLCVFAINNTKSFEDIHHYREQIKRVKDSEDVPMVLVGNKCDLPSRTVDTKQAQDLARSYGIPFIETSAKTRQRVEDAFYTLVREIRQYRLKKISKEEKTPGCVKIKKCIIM
GDP-bound HRAS wild-type protein, sequence (P01112 whole entry): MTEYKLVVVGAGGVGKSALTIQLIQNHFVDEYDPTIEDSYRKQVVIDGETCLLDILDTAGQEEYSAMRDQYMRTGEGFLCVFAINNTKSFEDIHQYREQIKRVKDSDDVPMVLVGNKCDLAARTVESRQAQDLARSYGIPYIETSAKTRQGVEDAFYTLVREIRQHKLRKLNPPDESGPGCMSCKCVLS

Row | Compound | IC50 [1] | pKd [2] | HRAS/KRAS (KD ratio) [3] | NRAS/KRAS (KD ratio) [4]
1 | CCO[C@@H]1C[C@H]2C(=O)NC3(CC(C)(C)C3)C(=O)N(C)[C@@H](C3CCCC3)C(=O)N(C)[C@H](C(=O)N(C)C)CC(=O)N(C)[C@@H](C)C(=O)N[C@@H]([C@@H](C)CC)C(=O)N(C)CC(=O)N(C)[C@H]3C/C=C\CCN(C3=O)[C@@H](Cc3ccc(C(F)(F)F)cc3)C(=O)N(C)CC(=O)N[C@@H](CCc3cc(F)c(C(F)(F)F)c(F)c3)C(=O)N2C1 [PP1641] | 4.6 nM | 10.01 | A (a compound having 10 or more and less than 20 is denoted as A) | A (a compound having 10 or more and less than 20 is denoted as A)
2 | CCO[C@@H]1C[C@H]2C(=O)NC3(CC(C)(C)C3)C(=O)N(C)[C@@H](C3CCCC3)C(=O)N(C)[C@H](C(=O)N(C)CC)CC(=O)N(C)[C@@H](CC(F)F)C(=O)N[C@@H]([C@@H](C)CC)C(=O)N(C)CC(=O)N(C)[C@H]3C/C=C\CCN(C3=O)[C@@H](Cc3ccc(C(F)(F)F)cc3)C(=O)N(C)CC(=O)N[C@@H](CCc3cc(F)c(C(F)(F)F)c(F)c3)C(=O)N2C1 [PP1643] | 1.6 nM | 10.26 | A (a compound having 10 or more and less than 20 is denoted as A) | A (a compound having 10 or more and less than 20 is denoted as A)
3 | CCO[C@@H]1C[C@H]2C(=O)NC3(CC(C)(C)C3)C(=O)N(C)[C@@H](C3CCCC3)C(=O)N(C)[C@H](C(=O)N(C)C)CC(=O)N(C)[C@@H](CC(F)(F)F)C(=O)N[C@@H]([C@@H](C)CC)C(=O)N(C)CC(=O)N(C)[C@H]3C/C=C\CCN(C3=O)[C@@H](Cc3ccc(C(F)(F)F)cc3)C(=O)N(C)CC(=O)N[C@@H](CCc3cc(F)c(C(F)(F)F)c(F)c3)C(=O)N2C1 [PP1644] | 2.7 nM | 10.42 | A (a compound having 10 or more and less than 20 is denoted as A) | A (a compound having 10 or more and less than 20 is denoted as A)
4 | CCO[C@@H]1C[C@H]2C(=O)NC3(CC(C)(C)C3)C(=O)N(C)[C@@H](C3CCCC3)C(=O)N(C)[C@H](C(=O)N(C)CC)CC(=O)N(C)[C@@H](CC3CC3)C(=O)N[C@@H]([C@@H](C)CC)C(=O)N(C)CC(=O)N(C)[C@H]3C/C=C\CCN(C3=O)[C@@H](Cc3ccc(C(F)(F)F)cc3)C(=O)N(C)CC(=O)N[C@@H](CCc3cc(F)c(C(F)(F)F)c(F)c3)C(=O)N2C1 [PP1648] | 2.1 nM | 9.96 | A (a compound having 10 or more and less than 20 is denoted as A) | A (a compound having 10 or more and less than 20 is denoted as A)
5 | CCO[C@@H]1C[C@H]2C(=O)NC3(CC(C)(C)C3)C(=O)N(C)[C@@H](C3CCCC3)C(=O)N(C)[C@H](C(=O)N(C)C)CC(=O)N(C)[C@@H](CC3CCC3)C(=O)N[C@@H]([C@@H](C)CC)C(=O)N(C)CC(=O)N(C)[C@H]3C/C=C\CCN(C3=O)[C@@H](Cc3ccc(C(F)(F)F)cc3)C(=O)N(C)CC(=O)N[C@@H](CCc3cc(F)c(C(F)(F)F)c(F)c3)C(=O)N2C1 [PP1651] | 2.3 nM | 10.10 | B (a compound having 3 or more and less than 10 is denoted as B) | A (a compound having 10 or more and less than 20 is denoted as A)

Continued, in another order:

Row | IC50 [1] | pKd [2] | Compound | HRAS/KRAS (KD ratio) [3] | NRAS/KRAS (KD ratio) [4]
6 | 1.8 nM | 10.40 | CCC[C@H]1C(=O)N[C@@H]([C@@H](C)CC)C(=O)N(C)CC(=O)N(C)[C@H]2C/C=C\CCN(C2=O)[C@@H](Cc2ccc(C(F)(F)F)cc2)C(=O)N(C)CC(=O)N[C@@H](CCc2cc(F)c(C(F)(F)F)c(F)c2)C(=O)N2C[C@H](OCC)C[C@H]2C(=O)NC2(CC(C)(C)C2)C(=O)N(C)[C@@H](C2CCCC2)C(=O)N(C)[C@H](C(=O)N(C)C)CC(=O)N1C [PP1645] | A (a compound having 10 or more and less than 20 is denoted as A) | A (a compound having 10 or more and less than 20 is denoted as A)
7 | 2.8 nM | 9.92 | CCC[C@H]1C(=O)N[C@@H]([C@@H](C)CC)C(=O)N(C)CC(=O)N(C)[C@H]2C/C=C\CCN(C2=O)[C@@H](Cc2ccc(C(F)(F)F)cc2)C(=O)N(C)CC(=O)N[C@@H](CCc2cc(F)c(C(F)(F)F)c(F)c2)C(=O)N2C[C@H](OCC)C[C@H]2C(=O)NC2(CC(C)(C)C2)C(=O)N(C)[C@@H](C2CCCC2)C(=O)N(C)[C@H](C(=O)N(C)CC)CC(=O)N1C [PP1646] | A (a compound having 10 or more and less than 20 is denoted as A) | A (a compound having 10 or more and less than 20 is denoted as A)
8 | 2.2 nM | 10.19 | CCCC[C@H]1C(=O)N[C@@H]([C@@H](C)CC)C(=O)N(C)CC(=O)N(C)[C@H]2C/C=C\CCN(C2=O)[C@@H](Cc2ccc(C(F)(F)F)cc2)C(=O)N(C)CC(=O)N[C@@H](CCc2cc(F)c(C(F)(F)F)c(F)c2)C(=O)N2C[C@H](OCC)C[C@H]2C(=O)NC2(CC(C)(C)C2)C(=O)N(C)[C@@H](C2CCCC2)C(=O)N(C)[C@H](C(=O)N(C)C)CC(=O)N1C [PP1649] | B (a compound having 3 or more and less than 10 is denoted as B) | A (a compound having 10 or more and less than 20 is denoted as A)
9 | 1.6 nM | 10.01 | CCO[C@@H]1C[C@H]2C(=O)NC3(CC(C)(C)C3)C(=O)N(C)[C@@H](C3CCCC3)C(=O)N(C)[C@H](C(=O)N(C)CC)CC(=O)N(C)[C@@H](CC)C(=O)N[C@@H]([C@@H](C)CC)C(=O)N(C)CC(=O)N(C)[C@H]3C/C=C\CCN(C3=O)[C@@H](Cc3ccc(C(F)(F)F)cc3)C(=O)N(C)CC(=O)N[C@@H](CCc3ccc(C(F)(F)F)c(OC)c3)C(=O)N2C1 [PP1653] | A (a compound having 10 or more and less than 20 is denoted as A) | A (a compound having 10 or more and less than 20 is denoted as A)
10 | 1.6 nM | 10.08 | CCO[C@@H]1C[C@H]2C(=O)NC3(CC(C)(C)C3)C(=O)N(C)[C@@H](C3CCCC3)C(=O)N(C)[C@H](C(=O)N(C)CC)CC(=O)N(C)[C@@H](CC(F)F)C(=O)N[C@@H]([C@@H](C)CC)C(=O)N(C)CC(=O)N(C)[C@H]3C/C=C\CCN(C3=O)[C@@H](Cc3ccc(C(F)(F)F)cc3)C(=O)N(C)CC(=O)N[C@@H](CCc3ccc(C(F)(F)F)c(OC)c3)C(=O)N2C1 [PP1655] | A (a compound having 10 or more and less than 20 is denoted as A) | A (a compound having 10 or more and less than 20 is denoted as A)
11 | 1.5 nM | 10.19 | CCCN(C)C(=O)[C@@H]1CC(=O)N(C)[C@@H](COC)C(=O)N[C@@H]([C@@H](C)CC)C(=O)N(C)CC(=O)N(C)[C@H]2C/C=C\CCN(C2=O)[C@@H](Cc2ccc(C(F)(F)F)cc2)C(=O)N(C)CC(=O)N[C@@H](CCc2ccc(C(F)(F)F)c(OC)c2)C(=O)N2C[C@H](OCC)C[C@H]2C(=O)NC2(CC(C)(C)C2)C(=O)N(C)[C@@H](C2CCCC2)C(=O)N1C [PP1656] | A (a compound having 10 or more and less than 20 is denoted as A) | AA (a compound having 20 or more is denoted as AA)
